Test results as given in patent US8883749B2, “Transcription factor inhibitors and related compositions, formulations and methods” (The Ohio State University, priority 2009, dated 2014).
Blank lines part the entries; values can stand above or below the compound they belong to.

Tests used:
P13K (P110b/85a) = molecular target: T1, P13K (P110b/85a) (Homo sapiens, UniProt P42338); test: Kinase profiler assay; assay type: biochemical; conditions: 10 concentrations, 100 μM highest
T1 construct: purchased Millipore UK Limited (Dundee, UK) or Reaction Biology Corp. (Malvern, Pa.)

TAK1 = molecular target: T2, TAK1 (Homo sapiens, UniProt O43318); test: Kinase profiler assay; assay type: biochemical; conditions: 10 concentrations, 100 μM highest
T2 construct: purchased Millipore UK Limited (Dundee, UK) or Reaction Biology Corp. (Malvern, Pa.)

PDK1 = molecular target: T3, PDK1 (Homo sapiens, UniProt O15530); test: Kinase profiler assay; assay type: biochemical; conditions: 10 concentrations, 100 μM highest
T3 construct: purchased Millipore UK Limited (Dundee, UK) or Reaction Biology Corp. (Malvern, Pa.)

MDA-MB-231 cells = test: Soft agar colony formation assay; assay type: cell-based, human; conditions: LLL12 1 μM or 5 μM, two weeks
Method: A base 0.6% agar gel with 10% FBS in DMEM was prepared and added to the wells of a 6-well culture dish. […] The cells were maintained at 37° C. and allowed to grow for two weeks. The colonies were stained using MTT dye (100 μL per well). Pictures of the colonies were taken using a Leica MZ 16FA inverted microscope (Leica Microsystems) with a 7.4 Slider Camera (Diagnostic Instruments Inc.). The colonies were scored by counting and numbers were normalized as a percentage of colonies formed in DMSO.

Yes = molecular target: T4, Yes (Homo sapiens, UniProt P07947); test: Kinase profiler assay; assay type: biochemical; conditions: 10 concentrations, 100 μM highest
T4 construct: purchased Millipore UK Limited (Dundee, UK) or Reaction Biology Corp. (Malvern, Pa.)

PKC-b = molecular target: T5, PKC-b (Homo sapiens, UniProt P05771); test: Kinase profiler assay; assay type: biochemical; conditions: 10 concentrations, 100 μM highest
T5 construct: purchased Millipore UK Limited (Dundee, UK) or Reaction Biology Corp. (Malvern, Pa.)

c-SRC = molecular target: T6, c-SRC (Homo sapiens, UniProt P12931); test: Kinase profiler assay; assay type: biochemical; conditions: 10 concentrations, 100 μM highest
T6 construct: purchased Millipore UK Limited (Dundee, UK) or Reaction Biology Corp. (Malvern, Pa.)

[1] = test system: HPDE, HMEC, HH and WI-38 cells; test: Western blot, cleaved PARP and caspase-3 in normal cells; conditions: LLL12 5 μM or 10 μM, 24 hours
VEGFR1 = molecular target: T7, VEGFR1 (Homo sapiens, UniProt P17948); test: Kinase profiler assay; assay type: biochemical; conditions: 10 concentrations, 100 μM highest
T7 construct: purchased Millipore UK Limited (Dundee, UK) and Reaction Biology Corp. (Malvern, Pa.)

mTOR = molecular target: T8, mTOR (Homo sapiens, UniProt P42345); test: Kinase profiler assay; assay type: biochemical; conditions: 10 concentrations, 100 μM highest
T8 construct: purchased Millipore UK Limited (Dundee, UK) or Reaction Biology Corp. (Malvern, Pa.)

CHK1 = molecular target: T9, CHK1 (Homo sapiens, UniProt O14757); test: Kinase profiler assay; assay type: biochemical; conditions: 10 concentrations, 100 μM highest
T9 construct: purchased Millipore UK Limited (Dundee, UK) or Reaction Biology Corp. (Malvern, Pa.)

Met = molecular target: T10, Met (Homo sapiens, UniProt P08581); test: Kinase profiler assay; assay type: biochemical; conditions: 10 concentrations, 100 μM highest
T10 construct: purchased Millipore UK Limited (Dundee, UK) or Reaction Biology Corp. (Malvern, Pa.)

JAK2 = molecular target: T11, JAK2 (Homo sapiens, UniProt O60674); test: Kinase profiler assay; assay type: biochemical; conditions: 10 concentrations, 100 μM highest
T11 construct: purchased Millipore UK Limited (Dundee, UK) or Reaction Biology Corp. (Malvern, Pa.)

Fes = molecular target: T12, Fes (Homo sapiens, UniProt P07332); test: Kinase profiler assay; assay type: biochemical; conditions: 10 concentrations, 100 μM highest
T12 construct: purchased Millipore UK Limited (Dundee, UK) or Reaction Biology Corp. (Malvern, Pa.)

C-Kit = molecular target: T13, C-Kit (Homo sapiens, UniProt P10721); test: Kinase profiler assay; assay type: biochemical; conditions: 10 concentrations, 100 μM highest
T13 construct: purchased Millipore UK Limited (Dundee, UK) or Reaction Biology Corp. (Malvern, Pa.)

PAK1 = molecular target: T14, PAK1 (Homo sapiens, UniProt Q13153); test: Kinase profiler assay; assay type: biochemical; conditions: 10 concentrations, 100 μM highest
T14 construct: purchased Millipore UK Limited (Dundee, UK) or Reaction Biology Corp. (Malvern, Pa.)

EGFR = molecular target: T15, EGFR (Homo sapiens, UniProt P00533); test: Kinase profiler assay; assay type: biochemical; conditions: 10 concentrations, 100 μM highest
T15 construct: purchased Millipore UK Limited (Dundee, UK) or Reaction Biology Corp. (Malvern, Pa.)

Fyn = molecular target: T16, Fyn (Homo sapiens, UniProt P06241); test: Kinase profiler assay; assay type: biochemical; conditions: 10 concentrations, 100 μM highest
T16 construct: purchased Millipore UK Limited (Dundee, UK) or Reaction Biology Corp. (Malvern, Pa.)

CDK4/CyclinD1 = molecular target: T17, CDK4/CyclinD1 (Homo sapiens, UniProt P11802); test: Kinase profiler assay; assay type: biochemical; conditions: 10 concentrations, 100 μM highest
T17 construct: purchased Millipore UK Limited (Dundee, UK) or Reaction Biology Corp. (Malvern, Pa.)

CDK6/CyclinD1 = molecular target: T18, CDK6/CyclinD1 (Homo sapiens, UniProt Q00534); test: Kinase profiler assay; assay type: biochemical; conditions: 10 concentrations, 100 μM highest
T18 construct: purchased Millipore UK Limited (Dundee, UK) or Reaction Biology Corp. (Malvern, Pa.)

Syk = molecular target: T19, Syk (Homo sapiens, UniProt P43405); test: Kinase profiler assay; assay type: biochemical; conditions: 10 concentrations, 100 μM highest
T19 construct: purchased Millipore UK Limited (Dundee, UK) or Reaction Biology Corp. (Malvern, Pa.)

Bmx = molecular target: T20, Bmx (Homo sapiens, UniProt P51813); test: Kinase profiler assay; assay type: biochemical; conditions: 10 concentrations, 100 μM highest
T20 construct: purchased Millipore UK Limited (Dundee, UK) or Reaction Biology Corp. (Malvern, Pa.)

Pyk2 = molecular target: T21, Pyk2 (Homo sapiens, UniProt Q14289); test: Kinase profiler assay; assay type: biochemical; conditions: 10 concentrations, 100 μM highest
T21 construct: purchased Millipore UK Limited (Dundee, UK) or Reaction Biology Corp. (Malvern, Pa.)

C-RAF = molecular target: T22, C-RAF (Homo sapiens, UniProt P04049); test: Kinase profiler assay; assay type: biochemical; conditions: 10 concentrations, 100 μM highest
T22 construct: purchased Millipore UK Limited (Dundee, UK) or Reaction Biology Corp. (Malvern, Pa.)

Erb B2/H ER2 = molecular target: T23, Erb B2/H ER2 (Homo sapiens, UniProt P04626); test: Kinase profiler assay; assay type: biochemical; conditions: 10 concentrations, 100 μM highest
T23 construct: purchased Millipore UK Limited (Dundee, UK) or Reaction Biology Corp. (Malvern, Pa.)

AKT1 = molecular target: T24, AKT1 (Homo sapiens, UniProt P31749); test: Kinase profiler assay; assay type: biochemical; conditions: 10 concentrations, 100 μM highest
T24 construct: purchased Millipore UK Limited (Dundee, UK) or Reaction Biology Corp. (Malvern, Pa.)

P13K (P110a/85a) = molecular target: T25, P13K (P110a/85a) (Homo sapiens, UniProt P42336); test: Kinase profiler assay; assay type: biochemical; conditions: 10 concentrations, 100 μM highest
T25 construct: purchased Millipore UK Limited (Dundee, UK) or Reaction Biology Corp. (Malvern, Pa.)

[2] = test system: HPAC pancreatic cancer cells; test: MTT cell viability assay; assay type: cell-based, human; conditions: 72 hours, 10% FBS, read-out: half-maximal inhibitory concentration (IC50), cell viability
Method: (§1) STAT3 activation is important for tumor cell proliferation and survival.
(§2) The cells were incubated at 37° C. for a period of 72 hours. 3-(4,5-Dimethylthiazolyl)-2,5-diphenyltetrazolium bromide (MTT) viability assay was done according to manufacturer's protocol (Roche Diagnostics, Mannheim, Germany). […] Half-maximal inhibitory concentrations (IC50) were determined using Sigma Plot 9.0 Software (Systat Software Inc., San Jose, Calif.).

U87 glioblastoma cells = test: MTT cell viability assay; assay type: cell-based, human; conditions: 72 hours, 10% FBS, read-out: half-maximal inhibitory concentration (IC50), cell viability
Method: as §1, §2

[3] = test system: PANC-1 pancreatic cancer cells; test: MTT cell viability assay; assay type: cell-based, human; conditions: PANC-1, MTT, 72 hours, 10% FBS; read-out: half-maximal inhibitory concentration (IC50), cell viability
Method: as §1, §2

U373 glioblastoma cells = test: MTT cell viability assay; assay type: cell-based, human; conditions: 72 hours, 10% FBS, read-out: half-maximal inhibitory concentration (IC50), cell viability
Method: as §1, §2

[4] = test system: SK-BR-3 breast cancer cells; test: MTT cell viability assay; assay type: cell-based, human; conditions: SK-BR-3, MTT, 72 hours, 10% FBS; read-out: half-maximal inhibitory concentration (IC50), cell viability
Method: as §1, §2

[5] = test system: MDA-MB-231 breast cancer cells; test: MTT cell viability assay; assay type: cell-based, human; conditions: MDA-MB-231, MTT, 72 hours, 10% FBS; read-out: half-maximal inhibitory concentration (IC50), cell viability
Method: as §1, §2

T9 sequence (O14757 whole entry): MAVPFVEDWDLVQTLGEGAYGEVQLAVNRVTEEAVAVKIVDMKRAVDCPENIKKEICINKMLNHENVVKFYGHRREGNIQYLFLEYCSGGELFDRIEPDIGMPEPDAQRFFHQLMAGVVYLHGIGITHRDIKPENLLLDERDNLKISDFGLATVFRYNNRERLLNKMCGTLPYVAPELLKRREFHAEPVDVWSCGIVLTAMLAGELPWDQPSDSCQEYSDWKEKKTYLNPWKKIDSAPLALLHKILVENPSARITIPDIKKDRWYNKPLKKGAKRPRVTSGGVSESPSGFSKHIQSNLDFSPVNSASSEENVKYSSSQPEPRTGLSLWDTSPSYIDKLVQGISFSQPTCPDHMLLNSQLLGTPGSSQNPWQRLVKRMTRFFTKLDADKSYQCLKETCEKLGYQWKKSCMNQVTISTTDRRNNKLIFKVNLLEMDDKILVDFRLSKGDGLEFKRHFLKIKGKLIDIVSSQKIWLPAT
T23 sequence (P04626 23-1255): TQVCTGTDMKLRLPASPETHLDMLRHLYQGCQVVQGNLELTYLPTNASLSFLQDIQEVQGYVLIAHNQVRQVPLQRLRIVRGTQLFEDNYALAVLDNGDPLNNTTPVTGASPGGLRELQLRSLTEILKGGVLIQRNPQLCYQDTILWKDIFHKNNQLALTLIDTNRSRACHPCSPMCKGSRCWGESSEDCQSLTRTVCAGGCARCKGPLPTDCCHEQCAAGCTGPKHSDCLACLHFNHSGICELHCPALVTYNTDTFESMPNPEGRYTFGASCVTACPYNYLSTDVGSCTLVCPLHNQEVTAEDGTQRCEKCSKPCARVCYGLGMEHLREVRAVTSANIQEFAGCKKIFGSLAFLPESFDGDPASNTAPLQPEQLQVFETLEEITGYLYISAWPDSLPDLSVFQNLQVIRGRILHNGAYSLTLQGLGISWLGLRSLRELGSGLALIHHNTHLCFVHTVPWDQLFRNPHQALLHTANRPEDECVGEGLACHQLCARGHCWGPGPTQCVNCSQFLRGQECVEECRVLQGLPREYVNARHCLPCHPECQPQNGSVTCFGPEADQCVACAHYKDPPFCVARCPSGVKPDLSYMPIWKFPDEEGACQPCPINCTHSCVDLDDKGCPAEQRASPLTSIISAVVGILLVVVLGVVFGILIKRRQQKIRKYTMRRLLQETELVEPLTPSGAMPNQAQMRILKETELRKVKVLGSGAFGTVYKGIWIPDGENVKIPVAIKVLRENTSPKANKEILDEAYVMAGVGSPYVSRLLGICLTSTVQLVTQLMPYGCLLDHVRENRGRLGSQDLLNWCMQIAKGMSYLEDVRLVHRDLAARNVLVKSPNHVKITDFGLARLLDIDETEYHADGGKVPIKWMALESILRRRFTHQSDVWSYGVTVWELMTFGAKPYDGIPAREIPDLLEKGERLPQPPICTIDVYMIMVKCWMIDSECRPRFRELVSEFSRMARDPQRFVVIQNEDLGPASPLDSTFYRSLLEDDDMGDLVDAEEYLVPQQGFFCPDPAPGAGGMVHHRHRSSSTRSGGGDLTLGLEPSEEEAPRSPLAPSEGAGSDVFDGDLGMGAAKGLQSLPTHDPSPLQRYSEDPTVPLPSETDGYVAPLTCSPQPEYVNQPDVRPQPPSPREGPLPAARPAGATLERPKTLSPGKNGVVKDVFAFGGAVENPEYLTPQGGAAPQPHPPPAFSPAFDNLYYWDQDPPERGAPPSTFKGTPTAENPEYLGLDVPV
T4 sequence (P07947 whole entry): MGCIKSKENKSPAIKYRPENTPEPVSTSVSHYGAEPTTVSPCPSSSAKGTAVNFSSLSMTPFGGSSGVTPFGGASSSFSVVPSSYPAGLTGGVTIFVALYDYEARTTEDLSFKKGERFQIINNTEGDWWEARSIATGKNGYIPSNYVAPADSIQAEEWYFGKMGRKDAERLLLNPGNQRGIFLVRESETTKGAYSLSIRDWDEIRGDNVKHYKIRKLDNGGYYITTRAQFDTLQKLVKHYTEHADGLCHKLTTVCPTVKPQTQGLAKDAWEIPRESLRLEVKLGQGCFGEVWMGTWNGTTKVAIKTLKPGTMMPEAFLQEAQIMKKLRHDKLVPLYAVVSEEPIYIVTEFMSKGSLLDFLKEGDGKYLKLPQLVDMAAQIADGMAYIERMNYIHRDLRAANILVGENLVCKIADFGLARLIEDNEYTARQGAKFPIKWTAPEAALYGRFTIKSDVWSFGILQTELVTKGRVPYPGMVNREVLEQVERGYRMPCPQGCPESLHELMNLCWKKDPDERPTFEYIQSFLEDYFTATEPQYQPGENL
T14 sequence (Q13153 whole entry): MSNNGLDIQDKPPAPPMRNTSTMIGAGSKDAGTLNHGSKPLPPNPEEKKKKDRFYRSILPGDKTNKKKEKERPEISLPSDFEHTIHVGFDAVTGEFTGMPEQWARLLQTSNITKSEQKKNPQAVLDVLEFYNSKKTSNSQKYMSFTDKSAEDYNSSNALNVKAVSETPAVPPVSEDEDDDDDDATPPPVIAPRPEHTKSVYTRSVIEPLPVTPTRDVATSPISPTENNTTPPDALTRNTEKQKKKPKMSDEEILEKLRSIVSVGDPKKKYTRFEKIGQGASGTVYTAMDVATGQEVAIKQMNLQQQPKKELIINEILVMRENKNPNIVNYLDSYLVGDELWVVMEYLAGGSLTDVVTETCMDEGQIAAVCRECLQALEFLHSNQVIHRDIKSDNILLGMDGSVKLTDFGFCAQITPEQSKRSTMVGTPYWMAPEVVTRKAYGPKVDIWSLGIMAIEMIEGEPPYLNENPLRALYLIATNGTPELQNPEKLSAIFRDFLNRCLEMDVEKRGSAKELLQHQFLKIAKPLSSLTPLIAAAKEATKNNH
T10 sequence (P08581 25-1390): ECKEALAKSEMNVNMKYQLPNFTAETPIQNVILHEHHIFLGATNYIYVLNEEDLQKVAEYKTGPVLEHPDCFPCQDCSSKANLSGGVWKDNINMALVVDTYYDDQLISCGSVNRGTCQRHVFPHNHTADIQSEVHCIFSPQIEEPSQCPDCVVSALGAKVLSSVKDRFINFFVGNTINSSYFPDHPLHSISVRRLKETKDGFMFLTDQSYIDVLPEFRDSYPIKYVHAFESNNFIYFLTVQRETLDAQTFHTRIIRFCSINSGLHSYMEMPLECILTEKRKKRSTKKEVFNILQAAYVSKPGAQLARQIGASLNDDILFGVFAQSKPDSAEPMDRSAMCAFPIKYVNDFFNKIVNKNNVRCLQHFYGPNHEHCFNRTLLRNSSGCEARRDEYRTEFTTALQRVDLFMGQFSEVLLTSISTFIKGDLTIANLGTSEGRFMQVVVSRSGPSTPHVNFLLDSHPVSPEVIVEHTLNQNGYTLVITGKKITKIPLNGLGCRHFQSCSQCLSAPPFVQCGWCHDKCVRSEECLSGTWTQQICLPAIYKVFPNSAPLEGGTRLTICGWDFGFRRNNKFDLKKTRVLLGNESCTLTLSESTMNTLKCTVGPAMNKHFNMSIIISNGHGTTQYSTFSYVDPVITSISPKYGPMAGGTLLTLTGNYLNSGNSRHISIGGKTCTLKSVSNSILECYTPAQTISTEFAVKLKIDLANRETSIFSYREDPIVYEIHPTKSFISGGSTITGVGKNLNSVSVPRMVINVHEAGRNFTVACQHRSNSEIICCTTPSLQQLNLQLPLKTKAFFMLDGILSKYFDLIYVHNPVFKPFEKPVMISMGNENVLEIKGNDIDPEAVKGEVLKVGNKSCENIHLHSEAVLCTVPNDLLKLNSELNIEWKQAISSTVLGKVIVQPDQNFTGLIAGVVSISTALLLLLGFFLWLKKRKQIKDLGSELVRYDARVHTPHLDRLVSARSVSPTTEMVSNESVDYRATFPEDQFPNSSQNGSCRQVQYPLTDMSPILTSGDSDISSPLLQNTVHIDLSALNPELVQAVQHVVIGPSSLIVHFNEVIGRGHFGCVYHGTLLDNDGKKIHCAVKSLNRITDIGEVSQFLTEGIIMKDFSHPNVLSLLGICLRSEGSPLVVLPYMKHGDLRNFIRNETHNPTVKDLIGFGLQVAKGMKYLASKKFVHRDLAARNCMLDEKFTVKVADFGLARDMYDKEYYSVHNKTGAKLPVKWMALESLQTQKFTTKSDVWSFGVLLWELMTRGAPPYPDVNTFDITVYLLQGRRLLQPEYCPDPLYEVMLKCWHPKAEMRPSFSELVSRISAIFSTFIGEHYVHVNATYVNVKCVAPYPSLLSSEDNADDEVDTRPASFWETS
T20 sequence (P51813 whole entry): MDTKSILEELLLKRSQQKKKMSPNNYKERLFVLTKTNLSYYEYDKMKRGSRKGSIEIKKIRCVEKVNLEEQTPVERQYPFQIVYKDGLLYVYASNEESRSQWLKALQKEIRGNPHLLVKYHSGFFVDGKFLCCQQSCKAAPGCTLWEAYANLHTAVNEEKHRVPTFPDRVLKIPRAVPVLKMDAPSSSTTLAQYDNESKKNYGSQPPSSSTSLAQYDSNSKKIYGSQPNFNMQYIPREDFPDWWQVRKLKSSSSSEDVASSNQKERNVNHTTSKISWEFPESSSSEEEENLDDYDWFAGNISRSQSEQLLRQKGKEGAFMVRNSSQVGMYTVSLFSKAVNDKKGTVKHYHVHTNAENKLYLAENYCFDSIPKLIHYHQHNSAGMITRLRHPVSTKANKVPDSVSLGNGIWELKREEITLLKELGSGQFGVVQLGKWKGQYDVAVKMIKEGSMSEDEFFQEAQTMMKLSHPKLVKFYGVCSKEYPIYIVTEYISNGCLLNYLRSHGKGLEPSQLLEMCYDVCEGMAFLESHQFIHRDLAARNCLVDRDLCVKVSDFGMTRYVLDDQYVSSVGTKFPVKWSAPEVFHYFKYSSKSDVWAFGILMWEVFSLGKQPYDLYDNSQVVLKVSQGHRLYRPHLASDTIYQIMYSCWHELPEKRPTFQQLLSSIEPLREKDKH

IC50 (P13K (P110b/85a)): > 100 µM
IC50 (TAK1): > 100 µM
IC50 (PDK1): > 100 µM
IC50 (Yes): > 100 µM
IC50 (PKC-b): > 100 µM
IC50 (c-SRC): > 100 µM
cleaved PARP or caspase-3 in cells without elevated STAT3 phosphorylation [1]: did not induce cleaved PARP or caspase-3
IC50 (VEGFR1): > 100 µM
IC50 (mTOR): > 100 µM
IC50 (CHK1): > 100 µM
IC50 (Met): > 100 µM
IC50 (JAK2): > 100 µM
IC50 (Fes): > 100 µM
IC50 (C-Kit): > 100 µM
IC50 (PAK1): > 100 µM
IC50 (EGFR): > 100 µM
IC50 (Fyn): > 100 µM
IC50 (CDK4/CyclinD1): 77.9 µM
IC50 (CDK6/CyclinD1): > 100 µM
IC50 (Syk): > 100 µM
IC50 (Bmx): > 100 µM
IC50 (Pyk2): > 100 µM
IC50 (C-RAF): > 100 µM
IC50 (Erb B2/H ER2): > 100 µM
IC50 (AKT1): > 100 µM
IC50 (P13K (P110a/85a)): > 100 µM
Compound: NS(=O)(=O)c1cccc2c1C(=O)c1cccc(O)c1C2=O [LLL12]
decrease in colony formation compared to the DMSO control (MDA-MB-231 cells): over 95%

IC50 [2]: > 100 µM
IC50 (U87 glioblastoma cells): 55.1 µM
IC50 [3]: > 100 µM
IC50 (U373 glioblastoma cells): 52.5 µM
IC50 [4]: > 100 µM
IC50 [5]: > 100 µM
Compound: Cc1ccc(S(=O)(=O)OCC(=O)Nc2ccc(C(=O)O)c(O)c2)cc1 [S3I-201]
